Results reported in patent US20090181948A1, “DIAMINE DERIVATIVE” (KYOWA HAKKO KOGYO CO., LTD., priority 2005, published 2009).

Assays:
[1] = target: T1, histamine H3 receptor (Rattus norvegicus, UniProt Q9QYN8); test: Histamine H3 receptor binding assay ([3H]-Nα-methylhistamine binding to rat striatum homogenate); settings: 1 μmol/L test compound; [3H]-Nα-methylhistamine 1 nmol/L; striata of Sprague-Dawley male rats, 25° C., 1 hour; read-out: Inhibition ratio of [3H]-Nα-methylhistamine binding
T1 construct: from tissue; host or cells: rat striatum (Sprague-Dawley, male, 6 weeks), membrane homogenate
How it was run: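 Rat striatum membranes (20 μg protein) incubated with [3H]-Nα-methylhistamine 1 nmol/L in 50 mmol/L Tris/HCl pH 7.4, 5 mmol/L EDTA, 1 hour at 25° C; bound ligand by filtration and scintillation counting. Nonspecific binding defined with 10 μmol/L thioperamide; % inhibition reported at 1 μmol/L compound.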

T1 sequence (Q9QYN8 whole entry): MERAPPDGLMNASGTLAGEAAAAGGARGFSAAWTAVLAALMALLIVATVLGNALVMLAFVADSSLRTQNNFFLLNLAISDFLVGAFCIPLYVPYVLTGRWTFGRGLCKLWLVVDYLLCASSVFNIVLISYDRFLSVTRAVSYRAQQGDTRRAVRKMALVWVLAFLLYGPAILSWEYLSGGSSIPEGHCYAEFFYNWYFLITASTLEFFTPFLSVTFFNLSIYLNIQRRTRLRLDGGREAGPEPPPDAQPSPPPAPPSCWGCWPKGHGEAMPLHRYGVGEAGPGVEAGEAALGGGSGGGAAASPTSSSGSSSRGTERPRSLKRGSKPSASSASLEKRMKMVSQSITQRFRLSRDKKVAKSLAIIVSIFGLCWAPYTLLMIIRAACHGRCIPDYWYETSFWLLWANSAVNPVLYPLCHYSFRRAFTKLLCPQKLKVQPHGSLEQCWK

SMILES	melting point	inhibition at 1 µM [1]
N#CC(C#N)=C(NCCCN1CCCCC1)N1CCN(C2CCCCC2)CC1 [Compound 183, [(4-Cyclohexylpiperazin-1-yl)(3-piperidinopropylamino)methylene]malononitrile]	136 to 137 °C	–
N#CC(C#N)=C1N(CCCN2CCC[C@@H]2CO)CCN1CCCN1CCC[C@@H]1CO [Compound 118, {1,3-Bis[3-((R)-2-hydroxymethylpyrrolidin-1-yl)propyl]imidazolidin-2-ylidene}malononitrile]	79 to 80 °C	≥ 80%
CN1CCCC1CCN1CCN(CCC2CCCN2C)C1=C(C#N)C#N (stereo not shown) [Compound 4, {1,3-Bis[2-(1-methylpyrrolidin-2-yl)ethyl]imidazolidin-2-ylidene}malononitrile]	121 to 123 °C	≥ 80%
C[C@@H]1CCCN1CCCN1CCN(CCN2CCCCC2)C1=C(C#N)C#N [Compound 194, {1-[3-((R)-2-methylpyrrolidin-1-yl)propyl]-3-(2-piperidinoethyl)imidazolidin-2-ylidene}malononitrile]	74 to 76 °C	≥ 80%
C#CC(C)(C)N1CCC(N2CCN(CCCN3CCCCC3)C2=C(C#N)C#N)CC1 [Compound 228, {1-[1-(1,1-Dimethyl-2-propynyl)piperidin-4-yl]-3-(3-piperidinopropyl)imidazolidin-2-ylidene}malononitrile]	112 to 115 °C	≥ 80%
C[C@H]1CCCN1CCCN1CCN(CCCN2CCOCC2)C1=C(C#N)C#N [Compound 201, {3-(3-Morpholinopropyl)-1-[3-((S)-2-methylpyrrolidin-1-yl)propyl]imidazolidin-2-ylidene}malononitrile]	72 to 73 °C	≥ 80%
N#CC(C#N)=C1N(CCCN2CCCCC2)CCN1C1CCN(CC(F)(F)F)CC1 [Compound 225, {1-(3-Piperidinopropyl)-3-[1-(2,2,2-trifluoroethyl)piperidin-4-yl]imidazolidin-2-ylidene}malononitrile]	103 to 105 °C	–
C[C@@H]1CCCN1CCCN1CCN(CCN2CCC[C@H]2C)C1=C(C#N)C#N [Compound 55, {1-[2-((R)-2-methylpyrrolidin-1-yl)ethyl]-3-[3-((R)-2-methylpyrrolidin-1-yl)propyl]imidazolidin-2-ylidene}malononitrile]	74 to 75 °C	≥ 80%
N#CC(C#N)=C(NCCN1CCCCC1)N1CCC(CN2CCCCC2)CC1 [Compound 147, [(2-Piperidinoethylamino)(4-piperidinomethylpiperidino)methylene]malononitrile]	78 to 80 °C	≥ 80%
C[C@@H]1CCCN1CCN1CCN(CCCN2CCC[C@@H]2C)C1=C(C#N)C#N [Compound 196, {3-[2-((R)-2-methylpyrrolidin-1-yl)ethyl]-1-[3-((S)-2-methylpyrrolidin-1-yl)propyl]imidazolidin-2-ylidene}malononitrile]	94 to 95 °C	≥ 80%
CC1CCCN1C1CCN(C(NCCCN2CCCCC2)=C(C#N)C#N)CC1 (stereo not shown) [Compound 163, {[4-(2-Methylpyrrolidin-1-yl)piperidino](3-piperidinopropylamino)methylene}malononitrile]	83 to 84 °C	≥ 80%
N#CC(C#N)=C(NC1CCN(Cc2ccccc2)CC1)NC1CCN(Cc2ccccc2)CC1 [Compound 239, [Bis(1-benzylpiperidin-4-ylamino)methylene]malononitrile]	147 to 148 °C	–
CCN(CCCN1CCCCC1)C(=C(C#N)C#N)N1CCC(N2CCCCC2)CC1 [Compound 162, {[N-ethyl-N-(3-piperidinopropyl)amino](4-piperidinopiperidino)methylene}malononitrile]	94 to 96 °C	≥ 80%
N#CC(C#N)=C1N(CCN2CCCCC2)c2ccccc2N1CCN1CCCCC1 [Compound 192, [1,3-Bis-(2-piperidinoethyl)benzimidazolidin-2-ylidene]malononitrile]	127 to 128 °C	–
CC1CCCN1CCCN1CCN(CCN2CCCC2)C1=C(C#N)C#N (stereo not shown) [Compound 61, {1-[3-(2-Methylpyrrolidin-1-yl)propyl]-3-[2-(pyrrolidin-1-yl)ethyl]imidazolidin-2-ylidene}malononitrile]	95 to 96 °C	≥ 80%
N#CC(C#N)=C(NCCCN1CCCCC1)N1CCC(N2CCOCC2)CC1 [Compound 164, [(3-Piperidinopropylamino) (4-morpholinopiperidino)methylene]malononitrile]	122 to 124 °C	–

SMILES	melting point	inhibition at 1 µM [1]
CN(CCN1CCCCC1)C(=C(C#N)C#N)N1CCC(N(C)c2ccccc2)CC1 [Compound 146, {[4-(N-methyl-N-phenylamino)piperidino][N-methyl-N-(2-piperidinoethyl)amino]methylene}malononitrile]	156 to 158 °C	–
CC1CCCN1CCCN1C(=C(C#N)C#N)N(CCN2CCCCC2)c2ccccc21 (stereo not shown) [Compound 200, {1-[3-(2-Methylpyrrolidin-1-yl)propyl]-3-(2-piperidinoethyl)benzimidazolidin-2-ylidene}malononitrile]	85 to 86 °C	≥ 80%
C[C@H]1CCCN1CCCN1CCN(CCCN2CCC[C@@H]2C)C1=CS(=O)(=O)CC#N [Compound 138, {1,3-Bis[3-((S)-2-methylpyrrolidin-1-yl)propyl]imidazolidin-2-ylidene}methanesulfonylacetonitrile]	91 to 93 °C	–
CC1CCCCN1CCN1CCN(CCCN2CCC[C@@H]2C)C1=C(C#N)C#N (stereo partly drawn) [Compound 198, {3-[2-(2-Methylpiperidino)ethyl]-1-[3-((S)-2-methylpyrrolidin-1-yl)propyl]imidazolidin-2-ylidene}malononitrile]	88 to 89 °C	≥ 80%
CC(C)N1CCC(N(C)C(=C(C#N)C#N)N2CCC(CN3CCCCC3)CC2)CC1 [Compound 179, {[N-(1-isopropylpiperidin-4-yl)-N-methylamino](4-piperidinomethylpiperidino)methylene}malononitrile]	197 to 198 °C	≥ 80%
N#CC(C#N)=C(NCCCN1CCCCC1)N1CCC(N2CCCC2)CC1 [Compound 158, {(3-Piperidinopropylamino)[4-(pyrrolidin-1-yl)piperidino]methylene}malononitrile]	114 to 116 °C	≥ 80%
CC1CCCN1CCCN1CCN(CCCN2CCC(F)(F)C2)C1=C(C#N)C#N (stereo not shown) [Compound 120, {1-[3-(3,3-Difluoropyrrolidin-1-yl)propyl]-3-[3-(2-methylpyrrolidin-1-yl)propyl]imidazolidin-2-ylidene}malononitrile]	99 to 102 °C	≥ 80%
C[C@@H]1CCCN1CCCN1CCN(CCCN2CCC[C@@H]2C)C1=C(C#N)C#N [Compound 117]	87 to 89 °C	≥ 80%
C[C@@H]1CCCN1CCCN1CCN(CCN2CCC[C@@H]2C)C1=C(C#N)C#N [Compound 197, {3-[2-((S)-2-methylpyrrolidin-1-yl)ethyl]-1-[3-((R)-2-methylpyrrolidin-1-yl)propyl]imidazolidin-2-ylidene}malononitrile]	93 to 94 °C	≥ 80%
N#CC(C#N)=C1N(CCCN2CCCC2)CCN1CCN1CCCC1 [Compound 60, {1-[2-(Pyrrolidin-1-yl)ethyl]-3-[3-(pyrrolidin-1-yl)propyl]imidazolidin-2-ylidene}malononitrile]	70 to 71 °C	≥ 80%
N#CC(C#N)=C1N(CCCN2CCCCC2)CCN1CCN1CCCC1 [Compound 59, {1-(3-Piperidinopropyl)-3-[2-(pyrrolidin-1-yl)ethyl]imidazolidin-2-ylidene}malononitrile]	63 to 64 °C	≥ 80%
N#CCS(=O)(=O)C=C1N(CCCN2CCCCC2)CCN1CCCN1CCCCC1 [Compound 136, [1,3-Bis(3-piperidinopropyl)imidazolidin-2-ylidene]methanesulfonylacetonitrile]	105 to 107 °C	–
C[C@H]1CCCN1CCCN1CCN(CCN2CCCCC2)C1=C(C#N)C#N [Compound 195, {1-[3-((S)-2-methylpyrrolidin-1-yl)propyl]-3-(2-piperidinoethyl)imidazolidin-2-ylidene}malononitrile]	70 to 71 °C	≥ 80%
N#CC(C#N)=C1N(CCCCN2CCCCC2)CCN1CCCCN1CCCCC1 [Compound 9, [1,3-Bis(4-piperidinobutyl)imidazolidin-2-ylidene]malononitrile]	–	≥ 80%
C[C@@H]1C[C@H](C)CN(CCN2CCN(CCCN3CCCC3)C2=C(C#N)C#N)C1 [Compound 18, {1-[2-(Cis-3,5-dimethylpiperidino)ethyl]-3-[3-(pyrrolidin-1-yl)propyl]imidazolidin-2-ylidene}malononitrile]	–	≥ 80%
